Where a name gives a salt, the structure may show the parent alone.
Molecular target: T1, recombinant human Estrogen Receptor alpha ligand binding domain, residues 307-554 (ER alpha-LBD (GST)) (Homo sapiens, UniProt P03372)
T1 construct: made in house
T1 sequence (P03372 307-554): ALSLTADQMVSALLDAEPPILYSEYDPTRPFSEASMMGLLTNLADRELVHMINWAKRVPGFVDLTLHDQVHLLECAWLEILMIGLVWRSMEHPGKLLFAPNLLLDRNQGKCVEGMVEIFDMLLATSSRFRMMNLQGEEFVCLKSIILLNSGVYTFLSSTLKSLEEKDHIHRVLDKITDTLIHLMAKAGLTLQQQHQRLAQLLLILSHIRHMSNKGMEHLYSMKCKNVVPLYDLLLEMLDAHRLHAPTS
Experiment: ERα binding assay (LanthaScreen TR-FRET competition)
Details: TR-FRET competition with Fluormone ES2 tracer, 4 hours at room temperature; single experiment or average of two or more

Row | Structure (SMILES) | IC50 [nM]
1 | Cc1ncsc1-c1ccc(CNC(=O)[C@@H]2C[C@@H](O)CN2C(=O)[C@@H](NC(=O)COCCOCCOCCOCCOCC(=O)Nc2ccc([C@@H]3c4[nH]c5ccccc5c4C[C@@H](C)N3CC(C)(C)F)cc2)C(C)(C)C)cc1 [Example 56, N^1-(4-((1R,3R)-2-(2-fluoro-2-methylpropyl)-3-methyl-2,3,4,9-tetrahydro-1H-pyrido[3,4-b]indol-1-yl)phenyl)-N^17—((S)-1-((2S,4R)-4-hydroxy-2-((4-(4-methylthiazol-5-yl)benzyl)carbamoyl)pyrrolidin-1-yl)-3,3-dimethyl-1-oxobutan-2-yl)-3,6,9,12,15-pentaoxaheptadecanediamide, Trifluoroacetic Acid] | 20
2 | Cc1ncsc1-c1ccc(CNC(=O)[C@@H]2C[C@@H](O)CN2C(=O)[C@@H](NC(=O)COCCCOCCOc2cc(F)c([C@@H]3c4[nH]c5ccccc5c4C[C@@H](C)N3CC(F)(F)F)c(F)c2)C(C)(C)C)cc1 [Example 94, (2S,4R)-1-((S)-2-(2-(3-(2-(3,5-Difluoro-4-((1R,3R)-3-methyl-2-(2,2,2-trifluoroethyl)-2,3,4,9-tetrahydro-1H-pyrido[3,4-b]indol-1-yl)phenoxy)ethoxy)propoxy)acetamido)-3,3-dimethylbutanoyl)-4-hydroxy-N-(4-(4-methylthiazol-5-yl)benzyl)pyrrolidine-2-carboxamide] | 0.9
3 | Cc1ncsc1-c1ccc(CNC(=O)[C@@H]2C[C@@H](O)CN2C(=O)[C@@H](NC(=O)COCCOCCOCCOCC(=O)Nc2ccc([C@@H]3c4[nH]c5ccccc5c4C[C@@H](C)N3CC(C)(C)F)cc2)C(C)(C)C)cc1 [Example 55, N^1-(4-((1R,3R)-2-(2-fluoro-2-methylpropyl)-3-methyl-2,3,4,9-tetrahydro-1H-pyrido[3,4-b]indol-1-yl)phenyl)-N^14—((S)-1-((2S,4R)-4-hydroxy-2-((4-(4-methylthiazol-5-yl)benzyl)carbamoyl)pyrrolidin-1-yl)-3,3-dimethyl-1-oxobutan-2-yl)-3,6,9,12-tetraoxatetradecanediamide, Trifluoroacetic Acid] | 12
4 | Cc1ncsc1-c1ccc(CNC(=O)[C@@H]2C[C@@H](O)CN2C(=O)[C@@H](NC(=O)COCCOCCOCC(=O)Nc2ccc([C@@H]3c4[nH]c5ccccc5c4C[C@@H](C)N3CC(C)(C)F)cc2)C(C)(C)C)cc1 [Example 57, (2S,4R)-1-((S)-2-(tert-butyl)-14-((4-((1R,3R)-2-(2-fluoro-2-methylpropyl)-3-methyl-2,3,4,9-tetrahydro-1H-pyrido[3,4-b]indol-1-yl)phenyl)amino)-4,14-dioxo-6,9,12-trioxa-3-azatetradecanoyl)-4-hydroxy-N-(4-(4-methylthiazol-5-yl)benzyl)pyrrolidine-2-carboxamide, Trifluoroacetic Acid] | 8.8
5 | Cc1ncsc1-c1ccc(CNC(=O)[C@@H]2C[C@@H](O)CN2C(=O)[C@@H](NC(=O)COCCOCCOCCOCC(=O)Nc2cc(F)c([C@@H]3c4[nH]c5ccccc5c4C[C@@H](C)N3CC(C)(C)F)c(F)c2)C(C)(C)C)cc1 [Example 68, N1-(3,5-difluoro-4-((1R,3R)-2-(2-fluoro-2-methylpropyl)-3-methyl-2,3,4,9-tetrahydro-1H-pyrido[3,4-b]indol-1-yl)phenyl)-N14-((S)-1-((2S,4R)-4-hydroxy-2-((4-(4-methylthiazol-5-yl)benzyl)carbamoyl)pyrrolidin-1-yl)-3,3-dimethyl-1-oxobutan-2-yl)-3,6,9,12-tetraoxatetradecanediamide] | 1
6 | Cc1ncsc1-c1ccc(CNC(=O)[C@@H]2C[C@@H](O)CN2C(=O)[C@@H](NC(=O)Cc2ccc(OCCOCCNC(=O)/C=C/c3cc(F)c([C@@H]4c5[nH]c6ccccc6c5C[C@@H](C)N4CC(C)(C)F)c(F)c3)cc2)C(C)(C)C)cc1 [Example 66, (2S,4R)-1-((S)-2-(2-(4-(2-(2-((E)-3-(3,5-difluoro-4-((1R,3R)-2-(2-fluoro-2-methylpropyl)-3-methyl-2,3,4,9-tetrahydro-1H-pyrido[3,4-b]indol-1-yl)phenyl)acrylamido)ethoxy)ethoxy)phenyl)acetamido)-3,3-dimethylbutanoyl)-4-hydroxy-N-(4-(4-methylthiazol-5-yl)benzyl)pyrrolidine-2-carboxamide, Trifluoroacetic Acid] | 1.2
7 | Cc1ncsc1-c1ccc(CNC(=O)[C@@H]2C[C@@H](O)CN2C(=O)[C@@H](NC(=O)COCCOCCCCCOc2cc(F)c([C@@H]3c4[nH]c5ccccc5c4C[C@@H](C)N3CC(C)(C)F)c(F)c2)C(C)(C)C)cc1 [Example 97, (2S,4R)-1-((S)-2-(2-(2-((5-(3,5-Difluoro-4-((1R,3R)-2-(2-fluoro-2-methylpropyl)-3-methyl-2,3,4,9-tetrahydro-1H-pyrido[3,4-b]indol-1-yl)phenoxy)pentyl)oxy)ethoxy)acetamido)-3,3-dimethylbutanoyl)-4-hydroxy-N-(4-(4-methylthiazol-5-yl)benzyl)pyrrolidine-2-carboxamide] | 0.5
8 | Cc1ncsc1-c1ccc(CNC(=O)[C@@H]2C[C@@H](O)CN2C(=O)[C@@H](NC(=O)COCCO[C@@H](C)[C@H](C)OCCOc2cc(F)c([C@@H]3c4[nH]c5ccccc5c4C[C@@H](C)N3CC(C)(C)F)c(F)c2)C(C)(C)C)cc1 [Example 82, (2S,4R)-1-((2S,10S,11S)-2-(tert-butyl)-14-(3,5-difluoro-4-((1R,3R)-2-(2-fluoro-2-methylpropyl)-3-methyl-2,3,4,9-tetrahydro-1H-pyrido[3,4-b]indol-1-yl)phenoxy)-10,11-dimethyl-4-oxo-6,9,12-trioxa-3-azatetradecanoyl)-4-hydroxy-N-(4-(4-methylthiazol-5-yl)benzyl)pyrrolidine-2-carboxamide] | 0.9
9 | Cc1ncsc1-c1ccc(CNC(=O)[C@@H]2C[C@@H](O)CN2C(=O)[C@@H](NC(=O)COCCO[C@H](C)[C@@H](C)OCCOc2cc(F)c([C@@H]3c4[nH]c5ccccc5c4C[C@@H](C)N3CC(C)(C)F)c(F)c2)C(C)(C)C)cc1 [Example 80, (2S,4R)-1-((2S,10R,11R)-2-(tert-butyl)-14-(3,5-difluoro-4-((1R,3R)-2-(2-fluoro-2-methylpropyl)-3-methyl-2,3,4,9-tetrahydro-1H-pyrido[3,4-b]indol-1-yl)phenoxy)-10,11-dimethyl-4-oxo-6,9,12-trioxa-3-azatetradecanoyl)-4-hydroxy-N-(4-(4-methylthiazol-5-yl)benzyl)pyrrolidine-2-carboxamide] | 0.7
10 | Cc1ncsc1-c1ccc(CNC(=O)[C@@H]2C[C@@H](O)CN2C(=O)[C@@H](NC(=O)COCCOCCOCCOc2cc(F)c([C@@H]3c4[nH]c5ccccc5c4C[C@@H](C)N3CC(F)(F)CO)c(F)c2)C(C)(C)C)cc1 [Example 71, (2S,4R)-1-((S)-2-(tert-Butyl)-14-(4-((1R,3R)-2-(2,2-difluoro-3-hydroxypropyl)-3-methyl-2,3,4,9-tetrahydro-1H-pyrido[3,4-b]indol-1-yl)-3,5-difluorophenoxy)-4-oxo-6,9,12-trioxa-3-azatetradecanoyl)-4-hydroxy-N-(4-(4-methylthiazol-5-yl)benzyl)pyrrolidine-2-carboxamide] | 1.3
11 | Cc1ncsc1-c1ccc(CNC(=O)[C@@H]2C[C@@H](O)CN2C(=O)[C@@H](NC(=O)COCCCCOCCCOc2cc(F)c([C@@H]3c4[nH]c5ccccc5c4C[C@@H](C)N3CC(C)(C)F)c(F)c2)C(C)(C)C)cc1 [Example 93] | 0.7
12 | Cc1ncsc1-c1ccc(CNC(=O)[C@@H]2C[C@@H](O)CN2C(=O)[C@@H](NC(=O)COCCOCCOCCCCNC(=O)c2cc(F)c([C@@H]3c4[nH]c5ccccc5c4C[C@@H](C)N3CC(C)(C)F)c(F)c2)C(C)(C)C)cc1 [Example 83, (2S,4R)-1-((S)-17-(tert-Butyl)-1-(3,5-difluoro-4-((1R,3R)-2-(2-fluoro-2-methylpropyl)-3-methyl-2,3,4,9-tetrahydro-1H-pyrido[3,4-b]indol-1-yl)phenyl)-1,15-dioxo-7,10,13-trioxa-2,16-diazaoctadecan-18-oyl)-4-hydroxy-N-(4-(4-methylthiazol-5-yl)benzyl)pyrrolidine-2-carboxamide] | 1.1
13 | Cc1ncsc1-c1ccc(CNC(=O)[C@@H]2C[C@@H](O)CN2C(=O)[C@@H](NC(=O)COCCCCCOc2cc(F)c([C@@H]3c4[nH]c5ccccc5c4C[C@@H](C)N3CC3(F)CC3)c(F)c2)C(C)(C)C)cc1 [Example 79, (2S,4R)-1-((S)-2-(2-((5-(3,5-difluoro-4-((1R,3R)-2-((1-fluorocyclopropyl)methyl)-3-methyl-2,3,4,9-tetrahydro-1H-pyrido[3,4-b]indol-1-yl)phenoxy)pentyl)oxy)acetamido)-3,3-dimethylbutanoyl)-4-hydroxy-N-(4-(4-methylthiazol-5-yl)benzyl)pyrrolidine-2-carboxamide] | 0.9
14 | Cc1ncsc1-c1ccc(CNC(=O)[C@@H]2C[C@@H](O)CN2C(=O)[C@@H](NC(=O)COCCCCCOc2cc(F)c([C@@H]3c4[nH]c5ccccc5c4C[C@@H](C)N3CC(F)(F)F)c(F)c2)C(C)(C)C)cc1 [Example 96] | 0.6
15 | CC[C@H](C)[C@H](N)C(=O)O[C@@H]1C[C@@H](C(=O)NCc2ccc(-c3scnc3C)cc2)N(C(=O)[C@@H](NC(=O)COCCOCCOCCOc2cc(F)c([C@@H]3c4[nH]c5ccccc5c4C[C@@H](C)N3CC(C)(C)F)c(F)c2)C(C)(C)C)C1 [Example 99, (3R,5S)-1-((S)-2-(2-(2-(2-(2-(3,5-Difluoro-4-((1R,3R)-2-(2-fluoro-2-methylpropyl)-3-methyl-2,3,4,9-tetrahydro-1H-pyrido[3,4-b]indol-1-yl)phenoxy)ethoxy)ethoxy)ethoxy)acetamido)-3,3-dimethylbutanoyl)-5-((4-(4-methylthiazol-5-yl)benzyl)carbamoyl)pyrrolidin-3-yl L-isoleucinate Formate] | 1.2
